# Assay results reported in patent US4542145A, “Substituted N-[(1H-1,2,4-triazol-1-yl)-alkyl]heteroarylcarboxamides” (American Cyanamid Company, priority 1984, dated 1985).
# Counter-ions that a name gives are not always drawn.
# Legend:
# thromboxane synthetase = biological target: T1, thromboxane synthetase (Rattus norvegicus, UniProt P49430); assay: Inhibition of thromboxane (TXB2) formation in washed SHR platelets, RIA; assay type: cell-based, spontaneously hypertensive rats (Okamoto-Aoki); conditions: 10 min, Dose 10^-4 (unit inferred), about 10 minutes at about 37° C.
# T1 construct: The platelets were isolated by centrifuging the PRP; endogenous in cells; host or cells: washed platelets from arterial blood of Okamoto-Aoki spontaneously hypertensive rats (Taconic Farms)
# T1 sequence (P49430 1-533): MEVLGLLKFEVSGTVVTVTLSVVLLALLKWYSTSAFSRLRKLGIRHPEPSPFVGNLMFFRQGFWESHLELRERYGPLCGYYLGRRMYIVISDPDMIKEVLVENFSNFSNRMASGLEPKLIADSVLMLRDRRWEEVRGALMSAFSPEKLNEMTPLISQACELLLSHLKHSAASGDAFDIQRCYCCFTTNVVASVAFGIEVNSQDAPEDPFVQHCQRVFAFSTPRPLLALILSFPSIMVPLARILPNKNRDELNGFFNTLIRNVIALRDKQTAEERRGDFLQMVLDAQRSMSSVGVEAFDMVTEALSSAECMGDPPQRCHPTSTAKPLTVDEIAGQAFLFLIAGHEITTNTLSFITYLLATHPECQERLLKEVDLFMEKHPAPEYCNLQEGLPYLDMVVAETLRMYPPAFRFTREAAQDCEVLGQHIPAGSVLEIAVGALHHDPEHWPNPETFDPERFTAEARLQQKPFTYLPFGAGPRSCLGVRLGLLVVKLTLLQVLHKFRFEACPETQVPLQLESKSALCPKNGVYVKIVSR
# Method: Under urethan anesthesia, about 10 μl arterial blood was collected in approximately 1 ml. of about 3.2% sodium citrate in a polystyrene tube from Okamoto-Aoki spontaneously hypertensive rats (SHR) (Taconic Farms, Germantown, N.Y.) between 19 and 24 weeks in age. The blood was diluted with about 3 ml of cold saline and centrifuged at room temperature for about 15 minutes at 460 xg. The platelet rich plasma (PRP) was separated. The platelets were isolated by centrifuging the PRP for about 10 minutes at 1060 xg and were washed in about 4 ml of cold oxygenated Krebs phosphate buffer, about pH 7.4. The chilled platelets recovered from centrifuging at 800 xg for about 10 minutes were resuspended in oxygenated Krebs phosphate buffer and diluted to contain 4.5-6.0×10^4 platelets/μl.
# The inhibition of thromboxane (TX) formation was studied by determining the concentration of thromboxane B2 (TXB2), the stable hydrolysis product of TXA2. Assay samples, prepared on ice, contained about 200 μl platelet suspension, about 50 μl saline and about 50 μl vehicle or drug under study. The samples were incubated for about 10 minutes at about 37° C. in a metabolic shaker. The reaction was terminated by immersing the tubes in an ice bath and adding about 50 μl of approximately 0.5 M citric acid. The samples were centrifuged for about 10 minutes in a refrigerated centrifuge and the supernatants thus obtained were decanted and stored at about-20° C. The TXB2 content for each sample was determined by a direct radioimmunoassay (RIA) utilizing a TXB2 specific RIA kit purchased from New England Nuclear, Boston, Mass. and expressed as pg TXB2 formed minute^-1 sample^-1, from which the percent inhibition of TXB2 formation was calculated.
# [1] = system: spontaneously hypertensive rats; assay: Hypotensive activity in spontaneously hypertensive rats (mean arterial blood pressure); assay type: in vivo, spontaneously hypertensive rats (Okamoto strain); conditions: oral gavage, about 100 mg/kg or less, two doses 24 h apart, 0.9% NaCl loading with first; about 28 hours after initial dose; SHR average MABP 170±1.5 mm of mercury; (No. of rats) in parentheses
# Method: The novel compounds of the present invention are active hypotensive agents and were tested for hypotensive activity by the method of P. S. Chan and D. Poorvin, Clinical and Experimental Hypertension, 1 (6), 817-830 (1979). Male, 16 week old, spontaneously hypertensive rats of the Okamoto strain, from Taconic Farms, Germantown, N.Y., having an average mean arterial blood pressure of 170±1.5 mm of mercury are used in the test. One to 3 rats are used per test compound. A rat is dosed by gavage with a test compound, suspended in approximately 2% pre-boiled starch at a concentration of about 50 mg/ml, at a dose of about 100 mg/kg of body weight or less, with approximately 0.9% sodium chloride loading at a dose of about 25 ml/kg of body weight. A second identical dose of the test compound, without sodium chloride loading is given about 24 hours later. At about 28 hours after the initial dose the mean arterial blood pressure is measured by the method of Chan and Poorvin vide supra. The procedure is repeated in a second and third rat when necessary.
SMILES,inhibition at 100 µM (thromboxane synthetase) [%],MABP (mean arterial blood pressure) [1] [m Hg]
"Cc1ccc(C(=O)NCCCn2cncn2)s1 [5-methyl-N--[3-(1H--1,2,4-triazol-1-yl)propyl]-2-thiophenecarboxamide]",56,
"O=C(NCCCn1cncn1)c1ccc(Br)o1 [5-bromo-N--[3-(1H--1,2,4-triazol-1-yl)propyl]-2-furancarboxamide]",61,107
"O=C(NCCn1cncn1)c1sc2ccccc2c1Cl [3-Chloro-N-[2-(1H-1,2,4-triazol-1-yl)ethyl]-benzo[b]thiophene-2-carboxamide]",90,
"O=C(NCCCn1cncn1)c1ccco1 [N--[3-(1H--1,2,4-triazol-1-yl)propyl]-2-furancarboxamide, fumarate]",,116
"O=C(NCCCn1cncn1)c1sc2ccccc2c1Cl [3-chloro-N--[3-(1H--1,2,4-triazol-1-yl)propyl]-benzo[b]thiophene-2-carboxamide]",60,137
"O=C(NCCCCn1cncn1)c1sc2ccccc2c1Cl [3-Chloro-N-[4-(1H-1,2,4-triazol-1-yl)-butyl]benzo[b]thiophene-2-carboxamide]",90,119
"O=C(NCCCn1cncn1)c1cc2ccccc2o1 [N--[3-(1H--1,2,4-triazol-1-yl)propyl]-2-benzo-furancarboxamide]",84,135
"O=C(NCCCn1cncn1)c1ccc(Cl)s1 [5-chloro-N--[3-(1H--1,2,4-triazol-1-yl)propyl]-2-thiophenecarboxamide]",64,135
"O=C(NCCCn1cncn1)c1ccc([N+](=O)[O-])o1 [5-Nitro-N-[3-(1H-1,2,4-triazol-y)propyl]-2-furancarboxamide]",70,132
"O=C(NCCCn1cncn1)c1cc(Br)c(Br)s1 [4,5-dibromo-N--[3-(1H--1,2,4-triazol-1-yl)-propyl]-2-thiophene-carboxamide]",86,137

# More lines, main results first:
inhibition at 100 µM (thromboxane synthetase) [%],SMILES,MABP (mean arterial blood pressure) [1] [m Hg]
55,"O=C(NCCCn1cncn1)c1ccoc1 [N--[3-(1H--1,2,4-triazol-1-yl)propyl]-3-furan-carboxamide]",135
68,"O=C(C=Cc1cccs1)NCCCn1cncn1 [N--[3-(1H--1,2,4-triazol-1-yl)propyl]-3-(2-thien-yl)-2-propenamide]",
65,"O=C(NCCCn1cncn1)c1ccco1 [N-[3-(1H-1,2,4-Triazol-1-yl)propyl]-2-furancarboxamide]",
30,"O=C(NCCCn1cncn1)c1cccs1 [N--[3-(1H--1,2,4-triazol-1-yl)propyl]-2-thio-phenecarboxamide]",130
